Experiments:
Format in all cases: cell-based, human
[1] = tested on: MCF7/FasR and MCF7/FasR/Bcl-xL cells; test: GSH quantification (GSH-Glo); settings: complex 4a all doses with 458 nm irradiation; TNFα 100 ng/mL; 72 h
Procedure: ATP and glutathione (GSH) contents were measured with the Promega CellTiter-Glo (Cat#G7570) and GSH-Glo (cat#6911) luminescent assays, respectively, according to the manufacturer’s recommendations.
Figure 13 Evaluation of apoptotic biomarkers. MCF7/FasR and MCF7/FasR/Bcl-xL cells were irradiated at 458 nm in presence of the indicated concentration of complex 4a or treated with […] TNFα for 72 h. (A) Cytosolic extracts from MCF7/FasR and MCF7/FasR/Bcl-xL cells were separated by SDS-PAGE and probed with anti-PARP, anti-caspase-7 and anti-caspase-8. Migrations indicated are: full-length PARP p113, cleaved PARP p89, full-length caspase-7 and full-length caspase-8. (B) MTT, ATP and GSH assays were evaluated in duplicate samples. Data are expressed as percent (%) of untreated cells and are the means of 3 independent experiments (***, p < 0.0001, NS, not significant).

[2] = tested on: MCF7/FasR and MCF7/FasR/Bcl-xL cells; test: Bcl-xL dependence of cell death, MTT in MCF7/FasR vs MCF7/FasR/Bcl-xL; settings: complexes: 458 nm irradiation, 10 nM to 1 µM, TNFα 100 ng/mL, 72 h
Excerpt: To determine the mechanism of cell death, we used MCF7 cells transfected to express the human Fas receptor (FasR) or doubly transfected to express the human Fas receptor and human Bcl-xL [75]. Since MCF7 cells express the TNF receptor endogenously, this allowed the study of both Fas- and TNFα-mediated apoptosis in the same cell model to assess whether cell death was dependent on the Bcl-2 family of mitochondrial proteins such as Bcl-xL. […]
Mitochondrial outer membrane permeabilization (MOMP), which leads to rapid cell death through the release of mitochondrial proteins (including cytochrome c) that activate executioner caspases, is the critical event in intrinsic apoptosis. […] We then assessed whether the cell death induced by our complexes could be abrogated by the overexpression of Bcl-xL.
A tetrazolium-based MTT reagent (3-(4,5-dimethylthiazol-2-yl)-2,5-diphenyltetrazolium bromide) was used to determine cell viability, as previously described. […] After solubilization with 500 μL of lysis buffer (DMSO), formazan was quantified by spectrophotometry with a microplate reader at 570 nm absorbance (ClarioSTAR, BMG LabTech, Champigny-sur-Marne, France). […] All results were calculated from data obtained in at least three independent experiments. […]
Figure 13 Evaluation of apoptotic biomarkers. […] (B) MTT, ATP and GSH assays were evaluated in duplicate samples. […]

MCF7/FasR cells = test: Cell death with or without pan-caspase inhibitor z-VAD-fmk, MTT; settings: TNFα 100 ng/mL, 72 h, MCF7/FasR, MTT
Excerpt: To determine the mechanism of cell death, we used MCF7 cells transfected to express the human Fas receptor (FasR) or doubly transfected to express the human Fas receptor and human Bcl-xL [75]. Since MCF7 cells express the TNF receptor endogenously, this allowed the study of both Fas- and TNFα-mediated apoptosis in the same cell model to assess whether cell death was dependent on the Bcl-2 family of mitochondrial proteins such as Bcl-xL. […] This is consistent with findings that death receptors such as FasR and TNFR can mediate apoptosis through both the extrinsic pathway (mitochondria-independent by directly activating executioner caspases via upstream caspase-8) and the intrinsic (mitochondrial) pathway controlled by the Bcl-2 family of proteins.
We next evaluated the effect of the pan-caspase inhibitor z-VAD-fmk on caspase signaling. As expected, the treatment with z-VAD-fmk rendered MCF7/FasR cells resistant to TNFα-induced PARP and caspase-7 processing (Figure 14A) and to the loss of cell viability (Figure 14B).
A tetrazolium-based MTT reagent (3-(4,5-dimethylthiazol-2-yl)-2,5-diphenyltetrazolium bromide) was used to determine cell viability, as previously described. After 72 h of treatment at 37 °C and 5% CO2, cells were incubated with 25 μL MTT solution (5 mg/mL; Sigma-Aldrich) for 4 h. After solubilization with 500 μL of lysis buffer (DMSO), formazan was quantified by spectrophotometry with a microplate reader at 570 nm absorbance (ClarioSTAR, BMG LabTech, Champigny-sur-Marne, France). […] All results were calculated from data obtained in at least three independent experiments.
Figure 11 Bcl-xL and z-VAD-fmk inhibited by Fas- or TNFα-induced cell death in MCF7 cells. […] Cell death was assessed by MTT assay. […]
Figure 14 Evaluation of apoptotic biomarkers. […] (B) Cell viability was evaluated in duplicate samples. Data are expressed as percent (%) of untreated cells and are the means of 3 independent experiments (***, p < 0.0001, NS, not significant).

TNFα
level of reduced GSH [1]: decreased | effect of Bcl-xL overexpression on loss of cell viability [2]: strongly inhibited by Bcl-xL | reduction in cell viability (MCF7/FasR cells): 65–85%
